Source: PMC5584065 (Biochemical pharmacology, 2015)
Read-outs that look alike come from different tables or passages of the source.

Assays:
CYP2E1 [1] = target: T1, CYP2E1 (Homo sapiens, UniProt P05181); settings: read-out: Ks; styrene, free enzyme; cited from earlier work
CYP2E1 [2] = target: T1, CYP2E1; assay: in vitro; settings: recombinant enzyme, pH 7.4
CYP2E1 [3] = target: T1, CYP2E1; assay: Impact of styrene on acetaminophen oxidation by recombinant CYP2E1; settings: 100 µM acetaminophen, styrene 50 to 500 µM
CYP2E1 [4] = target: T1, CYP2E1; assay: biochemical
Human CYP2E1 = settings: cited from earlier work

T1 sequence (P05181 whole entry): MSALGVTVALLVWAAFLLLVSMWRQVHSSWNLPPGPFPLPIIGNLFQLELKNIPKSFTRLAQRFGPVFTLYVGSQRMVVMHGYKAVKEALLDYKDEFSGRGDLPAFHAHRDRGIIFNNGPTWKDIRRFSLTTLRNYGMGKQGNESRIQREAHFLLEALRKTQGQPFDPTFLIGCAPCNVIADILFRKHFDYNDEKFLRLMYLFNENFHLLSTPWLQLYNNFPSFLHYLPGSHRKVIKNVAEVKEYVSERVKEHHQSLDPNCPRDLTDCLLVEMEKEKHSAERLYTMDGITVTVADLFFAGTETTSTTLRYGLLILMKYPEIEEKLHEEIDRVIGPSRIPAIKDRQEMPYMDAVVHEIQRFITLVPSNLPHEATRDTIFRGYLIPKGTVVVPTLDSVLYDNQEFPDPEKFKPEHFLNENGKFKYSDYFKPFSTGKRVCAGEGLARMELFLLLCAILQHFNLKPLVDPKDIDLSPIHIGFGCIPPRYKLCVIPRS

Row | activity (CYP2E1 [2]) [%] | IC50 (CYP2E1 [4]) [µM] | Structure (SMILES) | Kd (CYP2E1 [1]) [µM] | remaining acetaminophen oxidation activity versus prediction (CYP2E1 [3]) | Km (Human CYP2E1; CYP2E1 expressed in HepG2 cells or purified CYP2E1 in a reconstituted system) [µM] | Km (Human CYP2E1; reconstituted CYP2E1 system) [µM]
1 | 19 | 22 | C=Cc1ccccc1 [styrene] | 375 | greater than would be predicted by simple competition | – | –
2 | – | – | CC(=O)Nc1ccc(O)cc1 [acetaminophen] | – | – | ~600 | 1300
